Data set [1] concerns MDA-MB-231. Briefly: Cytotoxicity of EP probes via CTG assay. It counts as cell-based, human. The following applies: Homo sapiens, MDA-MB-231, 72 hr, read-out: MDA-MB231 EC50.
Procedure: (§5) Both normal cell lines HMEC and BJ cells were also evaluated to determine therapeutic index.
(§6) The concentrations used were experimentally determined to ensure logarithmic growth during the duration of the experiment and prevent adverse effects on cell growth by DMSO exposure. The plates were incubated at 37° C. in 5% CO2 for 24 h before treatment. Stock solutions of test compounds (10 mM in DMSO) in nine 3-fold serial dilutions were dispensed via pintool (Biomek). The final concentration of DMSO was 0.3% (v/v) in each well. The plates were incubated for 72 h at 37° C. in 5% CO2 and then quenched with CellTiter-Glo® reagent (50 μL/well in 96-well plate, 30 μL/well in 384-well plate) at RT. The positive controls included staurosporine (10 μM), gambogic acid (10 μM), and a toxic quinoline generated in-house. Plates were then incubated at RT for 20 min and centrifuged at 1000 rpm for 1 min. The cytotoxicity assay was performed by using the CellTiterGlo Luminescent Cell Viability Assay kit (G7570, Promega, Madison, WI) according to the manufacturer's instructions. Luminescence was recorded in an Envision plate reader (Perkin Elmer).
(§7) For the CTG assay, 3 or 4 replicate assays were conducted for each experimental condition, and a minimum of 3 independent experiments were conducted for cellular assays. The mean luminescence of each experimental treatment group was normalized as a percentage of the mean intensity of untreated controls. EC50 values (μM) were calculated by Pipeline Pilot Software (Accelrys, Enterprise Platform, CA, USA). EC50 values (μM) from the viability assay were calculated from dose response curve-fitting via non-linear regression by using GraphPad Prism (Version 7.0 San Diego, CA).
Data set [2] concerns T47D. Briefly: Cytotoxicity of EP probes via CTG assay. Type of data set: cell-based. Particulars: Homo sapiens, T47D, 72 hr.
Procedure: as §5, §6, §7
For data set [3], the system named is HMEC. Briefly: Cytotoxicity of EP probes via CTG assay, normal cells. It counts as cell-based. The following applies: Homo sapiens, HMEC, 72 hr.
Procedure: as §5, §6, §7
In data set [4] the test system is SUM-190 IBC cells. Nature of the data set: Cell viability assay (CellTiter-Glo or PI staining). It counts as cell-based. Particulars: SUM190; FIG. 4E.
Procedure: Different concentrations of GLE-extracted bioactive chemical components were tested for 72-h treatment periods.
Either 1×10^3-4.8×10^3 or 4×10^2-1.2×10^3 cells were seeded to each well of 96- or 384-well white polystyrene flat-bottomed plates (3610 or 8804BC, Corning) in 100 μL or 30 μL media per well, respectively. The concentrations used were experimentally determined to ensure logarithmic growth during the duration of the experiment and prevent adverse effects on cell growth by DMSO exposure. The plates were incubated at 37° C. in 5% CO2 for 24 h before treatment. Stock solutions of test compounds (10 mM in DMSO) in nine 3-fold serial dilutions were dispensed via pintool (Biomek). The final concentration of DMSO was 0.3% (v/v) in each well. […] Luminescence was recorded in an Envision plate reader (Perkin Elmer).
as §7
The test system of data set [5] is MCF10A. Type of data set: cell-based.
Procedure: As a control, normal human skin fibroblasts (BJ) cells and non-cancerous mammary epithelial cells (MCF10A) were used.
Cell viability assays (MTT or PI staining assays) in SUM-149, SUM-190, MDA-MB-231, and MCF10A cells were performed as we previously described [14].
In data set [6] the test system is additional cancer cellular models. Briefly: Cell viability assay, additional cancer models. Type of data set: cell-based. The text has this:
Therefore, EP exerts selective effects on cancer cell viability, similar to the effects obtained with whole mushroom extract (GLE), indicating an ample therapeutic window for this compound.

Data set [7] deals with MDA-MB-231 cells. Briefly: ApoTox-Glo Triplex assay (caspase 3/7). It counts as cell-based, human. Particulars: MDA-MB-231, 24 h. Here is the method: (§1) Cells commonly fail to bypass the G1 phase of the cycle due to mutations or DNA damage, which can result in apoptosis. […] In addition, caspase 3/7 activity assays were performed as an alternate method of apoptosis detection.
(§2) Cells (9.5×10^4/well in 75 μL of fresh medium) were dispensed in 96-well black flat bottom (8807BC, Corning) plates. The cells were incubated for 12 h at 37° C. and then treated with compounds (25 μL) for 24 h. DMSO was used as a negative control, and staurosporine was used as the positive control. The experiment was stopped by adding the Viability/Cytotoxicity Reagent and briefly mixed by orbital shaking (300-500 rpm for ˜30 sec). Plates were incubated for 30 min at 37° C., and fluorescence was measured in an Envision plate reader at the following two wavelength sets: 400Ex/505Em (Viability) 485Ex/520Em (Cytotoxicity). Then, the Caspase-Glo® 3/7 Reagent was added; plates were mixed briefly by orbital shaking (300-500 rpm for ˜30 sec), followed by an additional 30 min incubation at RT. Then luminescence, which correlates with caspase 3/7 activation, was recorded with a plate reader to determine apoptosis induction.

Data set [8] relates to SUM-149 cells. Nature of the data set: ApoTox-Glo Triplex assay (caspase 3/7). Type of data set: cell-based, human. Particulars: SUM-149, 24 h. The protocol: as §1, §2
In data set [9] the test system is SUM-149 cells. Briefly: Migration assay (Boyden chamber). It counts as cell-based, human. Particulars: 10 μM, 72 h. Here is the method:
(§3) Previously, the anti-migratory activities of whole mushroom GLE in SUM-149 cells was reported. To investigate EP's effects on cell migration, Boyden chamber assays; while to investigate invasion, Transwell chambers were used. […] Furthermore, an additional decrease (43%) was seen when cells were treated with a non-lethal dose of 15 μM of EP (P<0.01) (FIG. 8B).
(§4) Cell migration and invasion were measured by using Corning® FluoroBlok™ Cell Culture Inserts and performing BD BioCoat Matrigel invasion assays (BD Biosciences, San José, Calif.) as described in [12, 14].

Data set [10] has as its system SUM-149 cells. Nature of the data set: Invasion assay (Transwell, Matrigel). Type of data set: cell-based, human. The following applies: 72 h. Here is the method: as §3, §4
Data set [11] relates to AKT isoforms, BCL-XL, Cyclin D1, c-Myc, PARP in SUM-149 cells. Nature of the data set: Immunoblots of signaling proteins. Type of data set: cell-based, human. The text has this: Studies that focus on drivers of cancer cell survival and invasion signaling show the important role of the AKT isoforms in breast cancer. AKT1 and AKT3 are associated with breast cancer invasion, and PTEN-deficient tumors depend on AKT2 for maintenance and survival. […] Regulation of AKT isoform expression by EP is extremely similar to what the inventors reported with whole mushroom GLE in the same breast cancer cell lines.
Because EP induced apoptosis, its effects on the expression on anti-apoptosis proteins BCL-2 and BCL-XL, which block the release of cytochrome C from the mitochondria were investigated. […] The apoptosis inducing effects of EP in SUM-149 cells were investigated by monitoring PARP cleavage.
Breast cancer cells treated with vehicle or EP were lysed, and equal total protein was resolved via SDS-PAGE and immunoblotted with indicated antibodies (Cell Signaling Technologies, Abcam, Sigma) as described previously.
A general note: In western blotting, separated proteins are transferred to a membrane and probed.

Data set [12] is classed as physicochemical. Particulars: 168 hr at RT.
Data set [13] has as its system MDA-MB-231 GFP tumors. Nature of the data set: In vivo tumor progression, MDA-MB-231-GFP mammary fat pad xenograft. Particulars: 100 mg/kg BW i.p. three times per week, female SCID mice. Here is the method: Female severe combined immunodeficient (SCID) mice (21 d of age) were purchased from Charles River Laboratories International Inc. (Wilmington, MA) and housed under specific pathogen free conditions. The mice received autoclaved AIN 76-A phytoestrogen-free diet (Tek Global, Harlan Teklad, Madison, WI) and water ad libitum. This protocol was approved by the Universidad Central del Caribe IACUC. Cell inoculations were performed as previously described by the inventors (PMID: 20517637, PMID: 23468988, PMID: 26958085, PMID: 30542507, PMID: 31658643). […] After tumor establishment the animals were randomly divided into control and experimental groups. Treatment started on week 5 post-inoculations when tumors were ˜100 mm^3. […]
The mice were imaged following tumor establishment, and once per week thereafter. Tumor progression was monitored by fluorescence image analysis taken on an UVP iBox Explorer (Analytik Jena, Upland, CA) and quantified as in PMID: 20517637. Relative tumor growth was calculated as the fluorescence intensity of each tumor on day of imaging. Quantification for tumor progression was calculated using the fluorescence intensity of each treated tumor relative to the fluorescence intensity of the same tumor on d 01 of treatment administration (week 5) using ImageJ software (National Institutes of Health, Bethesda, MD). […]

Take `CC(C)[C@@H](C)/C=C/[C@@H](C)[C@H]1CC[C@@H]2[C@]1(C)CC[C@H]1[C@]23C=C[C@]2(C[C@@H](O)CC[C@]12C)OO3` [EP, ergosterol peroxide]: in data set [1], the EC50 (in general, the concentration that produces a half-maximal response) is 18 µM. In data set [2], it took 19 µM to reach a half-maximal effect (EC50). The EC50 in [3] was over 20 µM. Moreover, in [4], the EC50 was 43 µM. Further, the “cytotoxicity in MCF10A non-cancerous mammary epithelial cells” value in data set [5] was “did not induce cytotoxicity”. In data set [6], the EC50 lay in the range of 7 to 22 µM. Moreover, the “caspase 3/7 activity” value in [7] is listed as “increase caspase 3/7 activity”. Moreover, the “caspase 3/7 activity” value in [8] is “increase caspase 3/7 activity”. In addition, in data set [9], the cancer cell migration entry is “decreases cancer cell migration”. Also, the invading cells entry in data set [10] (10 μM) is “significant reduction”. The same molecule yielded a decrease in invasion in [10] (15 μM) of 43%. Besides, in [11] (SUM-149), the AKT2 levels result is “decreases”, the AKT3 levels result was “not affecting”, the “expression of BCL-XL” value was “significantly reduces” and the “expression of Cyclin D1” value is “significantly reduces”. For the same molecule, in data set [11] (SUM-149), the “expression of c-Myc” value is on record as “significantly reduces”, the “expression of p-AKT1 (Ser 473)” value is recorded as “significantly decreases”, the p-AKT2 entry was “without affecting” and the “total AKT1 levels” value is on record as “decreases”. Besides, in [11] (SUM-149, 24 h, EP 30 μM), the PARP cleavage entry was “induces PARP cleavage” and the “total PARP levels” value is given as “significantly reduces”. The precipitation on standing result in [12] is “precipitation”. The “tumor growth rate (GFP fluorescence integrated density relative to week 5)” value in [13] is “significantly decreases”.

Values taken from patent publication US12263177B2, “Biologically active ganoderma lucidum compounds and synthesis of anticancer derivatives; ergosterol peroxide probes for cellular localization” (priority 2019, dated 2025).
